{"source": "patent US7739055B2", "about": "“Methods and systems for generating and evaluating peptides” (priority 2005, dated 2010)", "key": {"[1]": {"test_system": "Sterne strain of Bacillus anthracis"}, "[2]": {"test_system": "Smith Diffuse strain of Staphylococcus aureus"}, "[3]": {"settings": "first concentration that prohibits growth by OD at 24 hours, Table 1"}}, "note": "Where two headings read alike, the source gives them in different places. Where a SMILES comes first, the peptide text is derived from it.", "data": [{"compound": "CC[C@H](C)[C@H](NC(=O)[C@H](CC(C)C)NC(=O)[C@H](C)NC(=O)[C@@H]1CCCN1C(=O)[C@H](Cc1ccccc1)NC(=O)[C@@H](NC(=O)[C@H](CCCCN)NC(=O)[C@H](CO)NC(=O)[C@H](C)NC(=O)[C@@H](NC(=O)[C@H](CCCNC(=N)N)NC(=O)[C@H](Cc1ccccc1)NC(=O)[C@H](CC(C)C)NC(=O)[C@@H](N)Cc1ccccc1)C(C)C)C(C)C)C(=O)NCC(=O)N[C@@H](CCCCN)C(=O)N[C@@H](Cc1ccccc1)C(=O)N[C@@H](CCCCN)C(=O)N[C@@H](CCCCN)C(=O)N[C@@H](CCCCN)C(=O)O", "note": "[Peptide 51] (H-FLFRVASKVFPALIGKFKKK-OH; N-terminus and C-terminus assumed)", "values": [{"measurement": "HC50, hemolytic concentration at which the peptides lyse 50% of human red blood cells", "setting": "human red blood cells", "value": "greater than 512 μg/ml"}, {"measurement": "MIC B. anthracis", "setting": "[1]", "value": 16, "unit": "µg/mL"}, {"measurement": "MIC E. coli", "setting": "Escherichia coli; 24 h", "value": 64, "unit": "µg/mL"}, {"measurement": "MIC B. cereus", "setting": "B. cereus; 24 h", "value": 16, "unit": "µg/mL"}, {"measurement": "MIC S. aureus", "setting": "[2]; Smith Diffuse strain of", "value": 16, "unit": "µg/mL"}]}, {"compound": "CC(C)C[C@H](NC(=O)[C@H](CCCCN)NC(=O)[C@H](Cc1ccccc1)NC(=O)[C@@H](NC(=O)[C@@H](NC(=O)CNC(=O)[C@H](CC(C)C)NC(=O)[C@@H](N)Cc1ccccc1)C(C)C)C(C)C)C(=O)N[C@@H](C)C(=O)N[C@@H](CO)C(=O)N[C@@H](CCCCN)C(=O)N[C@H](C(=O)N[C@@H](Cc1ccccc1)C(=O)N1CCC[C@H]1C(=O)N[C@@H](C)C(=O)N[C@H](C(=O)N[C@@H](Cc1ccccc1)C(=O)NCC(=O)N[C@@H](CCCCN)C(=O)N[C@H](C(=O)O)C(C)C)C(C)C)C(C)C", "note": "[Peptide 28] (H-FLGVVFKLASKVFPAVFGKV-OH; N-terminus and C-terminus assumed)", "values": [{"measurement": "HC50, hemolytic concentration at which the peptides lyse 50% of human red blood cells", "setting": "human red blood cells", "value": 42, "unit": "µg/mL"}, {"measurement": "MIC B. anthracis", "setting": "[1]", "value": 16, "unit": "µg/mL"}, {"measurement": "MIC E. coli", "setting": "Escherichia coli; 24 h", "value": 64, "unit": "µg/mL"}, {"measurement": "MIC B. cereus", "setting": "B. cereus; 24 h", "value": 16, "unit": "µg/mL"}, {"measurement": "MIC S. aureus", "setting": "[2]; Smith Diffuse strain of", "value": 8, "unit": "µg/mL"}]}, {"compound": "CC[C@H](C)[C@H](NC(=O)[C@H](CC(C)C)NC(=O)[C@H](C)NC(=O)[C@@H]1CCCN1C(=O)[C@H](Cc1ccccc1)NC(=O)[C@@H](NC(=O)[C@H](CCCCN)NC(=O)[C@H](CO)NC(=O)[C@H](C)NC(=O)[C@@H](NC(=O)[C@H](CCCNC(=N)N)NC(=O)[C@H](Cc1ccccc1)NC(=O)[C@@H](NC(=O)[C@@H](NC(=O)[C@@H]1CCCN1C(=O)[C@@H](N)CC(C)C)C(C)C)C(C)C)C(C)C)C(C)C)C(=O)N[C@@H](CO)C(=O)N[C@@H](CCCCN)C(=O)N[C@@H](CC(C)C)C(=O)N[C@H](C(=O)O)[C@@H](C)O", "note": "[Peptide 35] (H-LPVVFRVASKVFPALISKLT-OH; N-terminus and C-terminus assumed)", "values": [{"measurement": "MIC B. anthracis", "setting": "[1]", "value": 128, "unit": "µg/mL"}, {"measurement": "MIC E. coli", "setting": "Escherichia coli", "value": "+ (key: +: MIC greater than 256 ug/mL; ++: MIC greater than 128 ug/mL, not sufficiently soluble to test as 256 ug/mL)"}, {"measurement": "MIC B. cereus", "setting": "B. cereus; 24 h", "value": 256, "unit": "µg/mL"}, {"measurement": "MIC S. aureus", "setting": "[2]; Smith Diffuse strain of", "value": 256, "unit": "µg/mL"}]}, {"compound": "SVPSVGAVLFFKRAAVMKLI [Shuffled 22]", "values": [{"measurement": "MIC B. anthracis", "setting": "[1]", "value": "+ (key: +: MIC greater than 256 ug/mL; ++: MIC greater than 128 ug/mL, not sufficiently soluble to test as 256 ug/mL)"}, {"measurement": "MIC E. coli", "setting": "Escherichia coli; [3]", "value": "+ (MIC greater than 256 ug/mL)"}, {"measurement": "MIC B. cereus", "setting": "B. cereus; [3]", "value": "+ (MIC greater than 256 ug/mL)"}, {"measurement": "MIC S. aureus", "setting": "[2]; Smith Diffuse strain, Table 1", "value": "+ (MIC greater than 256 ug/mL)"}]}, {"compound": "THIHMNARLLIRSPFTDPQL [Peptide 10]", "values": [{"measurement": "MIC B. anthracis", "setting": "[1]", "value": "+ (key: +: MIC greater than 256 ug/mL; ++: MIC greater than 128 ug/mL, not sufficiently soluble to test as 256 ug/mL)"}, {"measurement": "MIC E. coli", "setting": "Escherichia coli; [3]", "value": "+ (MIC greater than 256 ug/mL)"}, {"measurement": "MIC B. cereus", "setting": "B. cereus", "value": "+ (key: +: MIC greater than 256 ug/mL; ++: MIC greater than 128 ug/mL, not sufficiently soluble to test as 256 ug/mL)"}, {"measurement": "MIC S. aureus", "setting": "[2]", "value": "+ (key: +: MIC greater than 256 ug/mL; ++: MIC greater than 128 ug/mL, not sufficiently soluble to test as 256 ug/mL)"}]}, {"compound": "GVSVAGAKKVKVLFVFPFLF [Shuffled 28]", "values": [{"measurement": "MIC B. anthracis", "setting": "[1]", "value": "+ (key: +: MIC greater than 256 ug/mL; ++: MIC greater than 128 ug/mL, not sufficiently soluble to test as 256 ug/mL)"}, {"measurement": "MIC E. coli", "setting": "Escherichia coli; [3]", "value": "+ (MIC greater than 256 ug/mL)"}, {"measurement": "MIC B. cereus", "setting": "B. cereus; [3]", "value": "+ (MIC greater than 256 ug/mL)"}, {"measurement": "MIC S. aureus", "setting": "[2]; Smith Diffuse strain, Table 1", "value": "+ (MIC greater than 256 ug/mL)"}]}, {"compound": "CC(C)C[C@H](NC(=O)[C@@H](NC(=O)[C@@H]1CCCN1C(=O)[C@H](CC(C)C)NC(=O)[C@@H](N)Cc1ccccc1)C(C)C)C(=O)N[C@H](C(=O)N[C@@H](CCCCN)C(=O)N[C@H](C(=O)N[C@@H](Cc1ccccc1)C(=O)N[C@@H](CCCNC(=N)N)C(=O)N[C@@H](Cc1ccc(O)cc1)C(=O)N[C@@H](CO)C(=O)N[C@@H](CCCCN)C(=O)N[C@@H](CCCCN)C(=O)N[C@H](C(=O)N[C@@H](C)C(=O)N[C@@H](C)C(=O)NCC(=O)N[C@@H](CS)C(=O)N[C@@H](Cc1ccccc1)C(=O)O)[C@@H](C)O)C(C)C)C(C)C", "note": "[Shuffled 5] (H-FLPVLVKVFRYSKKTAAGCF-OH; N-terminus and C-terminus assumed)", "values": [{"measurement": "MIC B. anthracis", "setting": "[1]", "value": "+ (key: +: MIC greater than 256 ug/mL; ++: MIC greater than 128 ug/mL, not sufficiently soluble to test as 256 ug/mL)"}, {"measurement": "MIC E. coli", "setting": "Escherichia coli; [3]", "value": "++ (MIC greater than 128 ug/mL, not sufficiently soluble to test as 256 ug/mL)"}, {"measurement": "MIC B. cereus", "setting": "B. cereus; 24 h", "value": 64, "unit": "µg/mL"}, {"measurement": "MIC S. aureus", "setting": "[2]; Smith Diffuse strain, Table 1", "value": "+ (MIC greater than 256 ug/mL)"}]}, {"compound": "CC(C)C[C@H](NC(=O)CNC(=O)[C@H](Cc1ccccc1)NC(=O)[C@H](CC(C)C)NC(=O)[C@@H](N)Cc1ccccc1)C(=O)N[C@@H](C)C(=O)N[C@@H](CO)C(=O)N[C@@H](CCCCN)C(=O)N[C@H](C(=O)N[C@@H](Cc1ccccc1)C(=O)N1CCC[C@H]1C(=O)N[C@@H](C)C(=O)N[C@H](C(=O)N[C@@H](Cc1ccc(O)cc1)C(=O)N[C@@H](CS)C(=O)N[C@@H](CCCCN)C(=O)N[C@H](C(=O)N[C@H](C(=O)N[C@@H](CCCNC(=N)N)C(=O)N[C@@H](CCCCN)C(=O)O)[C@@H](C)O)C(C)C)C(C)C)C(C)C", "note": "[Peptide 5] (H-FLFGLASKVFPAVYCKVTRK-OH; N-terminus and C-terminus assumed)", "values": [{"measurement": "MIC B. anthracis", "setting": "[1]", "value": 128, "unit": "µg/mL"}, {"measurement": "MIC E. coli", "setting": "Escherichia coli; 24 h", "value": 64, "unit": "µg/mL"}, {"measurement": "MIC B. cereus", "setting": "B. cereus; 24 h", "value": 256, "unit": "µg/mL"}, {"measurement": "MIC S. aureus", "setting": "[2]; Smith Diffuse strain of", "value": 256, "unit": "µg/mL"}]}]}
